Measurements published in the NIST ThermoML archive (doi:10.1016/j.jct.2007.05.016).
Where “and” joins values, the source holds several entries; their conditions need not be identical. Identical values can stand only once. Numbers after ± are expanded uncertainties.

Columns and labels:
[1] = 101 kPa, Liquid; for speed of sound: Sing-around technique in a fixed-path interferometer
[2] = xn = mol fraction of the nth substance listed; conditions: 101 kPa, Liquid, x1 = 1; for speed of sound: Sing-around technique in a fixed-path interferometer

SMILES	mass density ([1]; 298.15 K) [kg/m3]	viscosity ([1]; 298.15 K) [mPa·s]	speed of sound ([1]; 298.15 K)	mass density ([1]; 303.15 K) [kg/m3]	speed of sound ([1]; 303.15 K) [m/s]	mass density ([1]; 308.15 K) [kg/m3]	speed of sound ([1]; 308.15 K) [m/s]	speed of sound ([2]; 298.15 K) [m/s]	mass density ([2]; 298.15 K) [kg/m3]	viscosity ([2]; 298.15 K) [mPa·s]	speed of sound ([2]; 303.15 K) [m/s]	mass density ([2]; 303.15 K) [kg/m3]	speed of sound ([2]; 308.15 K) [m/s]	mass density ([2]; 308.15 K) [kg/m3]
CCCCO [butan-1-ol]	805.907 ± 0.77	2.573 ± 0.032	1240.5 ± 1.2 m/s and 1240.4 ± 1.2 m/s	803.155 ± 0.78	1226.5 ± 1.2	799.249 ± 0.78	1209.8 ± 1.2	–	–	–	–	–	–	–
CCCCO [butan-1-ol] + CCCCCC	–	–	–	–	–	–	–	1240.5 ± 1.2	805.907 ± 0.77	2.573 ± 0.032	1226.5 ± 1.2	803.155 ± 0.78	1209.8 ± 1.2	799.249 ± 0.78
CCCCO [butan-1-ol] + CCCCCCCC	–	–	–	–	–	–	–	1240.4 ± 1.2	805.907 ± 0.77	2.573 ± 0.032	1226.5 ± 1.2	803.155 ± 0.78	1209.8 ± 1.2	799.249 ± 0.78
CCCCO [butan-1-ol] + CCCCCCCCCC	–	–	–	–	–	–	–	1240.5 ± 1.2	805.907 ± 0.77	2.573 ± 0.032	1226.5 ± 1.2	803.155 ± 0.78	1209.8 ± 1.2	799.249 ± 0.78
CCCCCCCCCC [decane]	726.806 ± 0.93	0.852 ± 0.012	1234.8 ± 1.2 m/s	723.042 ± 0.94	1215.2 ± 1.2	719.23 ± 0.95	1195.6 ± 1.2	–	–	–	–	–	–	–
CCCCCC [hexane]	655.072 ± 1.1	0.313 ± 0.008	1077.8 ± 1.2 m/s	650.369 ± 1.1	1055.2 ± 1.1	645.767 ± 1.1	1032.9 ± 1.1	–	–	–	–	–	–	–
CCCCCCCC [octane]	698.58 ± 0.99	0.518 ± 0.009	1172.7 ± 1.2 m/s	694.497 ± 1	1152.1 ± 1.2	690.416 ± 1	1131.7 ± 1.2	–	–	–	–	–	–	–
